Reference: patent US9113629B2, “4-amino-6-(4-substituted-phenyl)-picolinates and 6-amino-2-(4-substituted-phenyl)-pyrimidine-4-carboxylates and their use as herbicides” (DOW AGROSCIENCES LLC, priority 2013, dated 2015)
Where two headings read alike, the source gives them in different places.

Experiments:
[1] = tested on: Key Grass and Sedge Weeds as well as Grass Crops; test: Post-emergent Test II herbicidal activity (Table 6); type: in vivo; settings: post-emergence, 336 h; for pest or weed control at 70 g/ha: 70 g ai/ha; for pest or weed control at 140 g/ha: 140 g ai/ha
How it was run: (§1)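 Compounds, dissolved in 97:3 acetone/DMSO and diluted into an aqueous carrier containing crop oil concentrate and Triton X-155, are applied over the top of young plants at 187 L/ha. Injury is scored visually at 14 d, 0% meaning no effect and 100% complete kill.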

[2] = tested on: Key Broadleaf Weed and Crop Species; test: Post-emergent Test II herbicidal activity (Table 5); type: in vivo; settings: post-emergence, 336 h, 14 days after application; for pest or weed control at 70 g/ha: application rate 70 g ai/ha; for pest or weed control at 140 g/ha: application rate 140 g ai/ha
How it was run: as §1

[3] = CYPES: yellow nutsedge (Cyperus esculentus), read-out: Visual Growth Reduction (%) 14 Days After Application, CYPES
[4] = DIGSA: crabgrass (Digitaria sanguinalis), read-out: Visual Growth Reduction (%) 14 Days After Application, DIGSA
[5] = ECHCG: barnyardgrass (Echinochloa crus-galli), read-out: Visual Growth Reduction (%) 14 Days After Application, ECHCG
[6] = ORYSA: rice (Oryza sativa), crop, read-out: Visual Growth Reduction (%) 14 Days After Application, ORYSA
[7] = SETFA: giant foxtail (Setaria faberi), read-out: Visual Growth Reduction (%) 14 Days After Application, SETFA
[8] = SORVU: grain sorghum (Sorghum vulgare), read-out: Visual Growth Reduction (%) 14 Days After Application, SORVU
[9] = TRZSS (wheat, Triticum aestivum), crop, read-out: Visual Growth Reduction (%) 14 Days After Application, TRZSS
[10] = ZEAMX: maize, corn (Zea mays), crop, read-out: Visual Growth Reduction (%) 14 Days After Application, ZEAMX
[11] = ABUTH: velvetleaf (Abutilon theophrasti), read-out: Visual Growth Reduction (%) 14 Days After Application, ABUTH
[12] = AMARE: redroot pigweed (Amaranthus retroflexus), read-out: Visual Growth Reduction (%) 14 Days After Application, AMARE
[13] = BRSNN: oilseed-rape, canola (Brassica napus), read-out: Visual Growth Reduction (%) 14 Days After Application, BRSNN
[14] = CHEAL: lambsquarters (Chenopodium album), read-out: Visual Growth Reduction (%) 14 Days After Application, CHEAL
[15] = EPHHL: wild poinsettia (Euphorbia heterophylla), read-out: Visual Growth Reduction (%) 14 Days After Application, EPHHL
[16] = HELAN: sunflower (Helianthus annuus), read-out: Visual Growth Reduction (%) 14 Days After Application, HELAN
[17] = VIOTR: wild pansy (Viola tricolor), read-out: Visual Growth Reduction (%) 14 Days After Application, VIOTR

`Nc1c(F)c(-c2ccc(I)c(F)c2F)nc(C(=O)O)c1Cl` [Compound 141, 4-amino-3-chloro-6-(2,3-difluoro-4-iodophenyl)-5-fluoropicolinic acid] showed a melting point of 155 to 157 °C, a pest or weed control at 70 g/ha [1, 3] of 0 to 29% and a pest or weed control at 140 g/ha [1, 3] of 95 to 100%. For the same compound, the pest or weed control at 70 g/ha [1, 4] was 75 to 84%, the pest or weed control at 140 g/ha [1, 4] was 75 to 84% and the pest or weed control at 70 g/ha [1, 5] was 85 to 94%. For the same compound, the pest or weed control at 140 g/ha [1, 5] was 95 to 100%, the pest or weed control at 70 g/ha [1, 6] was 0 to 29% and the pest or weed control at 140 g/ha [1, 6] was 0 to 29%. It also gave a pest or weed control at 70 g/ha [1, 7] of 75 to 84%, a pest or weed control at 140 g/ha [1, 7] of 95 to 100% and a pest or weed control at 70 g/ha [1, 8] of 85 to 94%. It also gave a pest or weed control at 140 g/ha [1, 8] of 85 to 94%, a pest or weed control at 70 g/ha [1, 9] of 60 to 74% and a pest or weed control at 140 g/ha [1, 9] of 60 to 74%. The pest or weed control at 70 g/ha [1, 10] was 95 to 100%, the pest or weed control at 140 g/ha [1, 10] was 95 to 100% and the pest or weed control at 70 g/ha [2, 11] was 85 to 94%. It also gave a pest or weed control at 140 g/ha [2, 11] of 85 to 94%, a pest or weed control at 70 g/ha [2, 12] of 95 to 100% and a pest or weed control at 140 g/ha [2, 12] of 95 to 100%. The pest or weed control at 70 g/ha [2, 13] was 95 to 100%, the pest or weed control at 140 g/ha [2, 13] was 95 to 100% and the pest or weed control at 70 g/ha [2, 14] was 85 to 94%. The pest or weed control at 140 g/ha [2, 14] was 85 to 94%, the pest or weed control at 70 g/ha [2, 15] was 95 to 100% and the pest or weed control at 140 g/ha [2, 15] was 95 to 100%. For the same compound, the pest or weed control at 70 g/ha [2, 16] was 95 to 100%, the pest or weed control at 140 g/ha [2, 16] was 95 to 100% and the pest or weed control at 70 g/ha [2, 17] was 95 to 100%. The pest or weed control at 140 g/ha [2, 17] was 95 to 100%.
